The test system of experiment [1] is uterus of infant rats. Briefly: Anti-uterus growth test in infant rats (antiestrogenic action). Type of experiment: in vivo, rat. The settings on record: with 0.3 μg/animal/day 17β-estradiol. From the text: (§1) The influence of the compounds according to the invention on the uterus was examined in the uterus growth test (estrogenic action) and in the anti-uterus growth test (antiestrogenic action), both performed on infant rats.
The uterus of infant estrogen-substituted rats can be used as a test model to detect a direct action of substances with antiestrogenic properties. The parameter of the estrogenic action is the uterus growth that is induced by estradiol in infant rats and that is inhibited by simultaneous administration of a substance with antiestrogenic action.
The test substances are treated s.c. on 3 successive days (d1-d3) in combination with a substitution dose of 0.3 μg/animal/day of 17β-estradiol. As a positive control, 17β-estradiol alone is used; the vehicle group is used as a negative control. On day 4 (d4), the animals are sacrificed, uteri and vaginae are prepared outside and weighed. The organ weights are converted into mg/100 g of body weight, and then the mean and the standard deviation for each dosage are calculated. The inhibition of the uterus or vaginal growth that is induced by 17β-estradiol is indicated in % as inhibition.

A further experiment addresses T1, human estrogen receptor (Homo sapiens, UniProt P03372).
T1 construct: expressed in transfected cells; host or cells: HeLa cells
T1 sequence (P03372 1-595): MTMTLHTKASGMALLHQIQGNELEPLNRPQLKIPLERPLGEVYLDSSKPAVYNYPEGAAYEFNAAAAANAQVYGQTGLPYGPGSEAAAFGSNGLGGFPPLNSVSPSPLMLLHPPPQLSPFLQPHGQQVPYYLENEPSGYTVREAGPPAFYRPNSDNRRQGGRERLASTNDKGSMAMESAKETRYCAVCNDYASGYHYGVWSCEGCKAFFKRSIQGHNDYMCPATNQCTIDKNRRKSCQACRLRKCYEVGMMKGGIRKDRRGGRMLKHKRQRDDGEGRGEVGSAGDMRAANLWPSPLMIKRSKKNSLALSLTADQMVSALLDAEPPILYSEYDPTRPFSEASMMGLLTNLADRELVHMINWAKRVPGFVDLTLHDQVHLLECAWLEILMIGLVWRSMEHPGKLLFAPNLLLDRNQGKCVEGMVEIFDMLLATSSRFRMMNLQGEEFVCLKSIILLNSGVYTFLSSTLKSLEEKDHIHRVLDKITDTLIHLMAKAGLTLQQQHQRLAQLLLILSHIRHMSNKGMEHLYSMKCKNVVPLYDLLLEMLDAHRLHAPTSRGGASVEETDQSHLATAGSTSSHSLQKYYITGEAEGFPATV
Briefly: Transactivation assay in HeLa cells (antiestrogenic action, vit-TK-CAT reporter). Type of experiment: cell-based. The settings on record: in the presence of 0.1 nM estradiol, read-out: Antagonism IC50, HELA.

The target of a further experiment is T2, estrogen receptors (Homo sapiens, UniProt P03372).
T2 construct: expressed in transfected cells; host or cells: HeLa cells
Briefly: Transactivation assay in HeLa cells (partial estrogenic action, rPR-TK). Type of experiment: cell-based. The settings on record: rPR-TK reporter, read-out: Agonism HELA (rPR-TK). As for the experimental part:
The partial estrogenic action was also determined by transactivation assays. HeLa cells were […] with estrogen receptors and a reporter gene, which consists of the estrogen-response element of the progesterone receptor and the CAT-gene. The test was performed as described: Savouret et al., EMBO J. 10, 1875-1883 (1991).

Experiment [2] deals with uterus of infant rats. Briefly: Uterus growth test on infant rats (estrogenic action). Type of experiment: in vivo, rat. Particulars: for Epithelial Height % E2 / Uterus Weight % E2: 3 days, infant rats.
From the text: as §1
In infant animals, both uterus and vagina show one of the estrogenic activity-dependent weight increases in their treatment with an estrogenically active substance. In the uterus, under estrogenic action, moreover, it results in a proliferation and height increase of the luminal epithelium.
Immature, normal rats (body weight 40-50 g) receive the substance s.c. over 3 days (d1-d3). On day 4 (d4), the animals are sacrificed with CO2. The uteri are prepared outside and weighed. A piece of the uterus, preferably a uterine horn, is set in formaldehyde for the histological evaluation and embedded in paraffin. The stimulation of the organ weights (relative to mg/100 g of body weight) and the epithelial height are indicated in percentage stimulation in comparison to the reference compound 17β-estradiol. (Substitution dose E2 0.3 μg/animal).

For experiment [3], the system named is uterus of ovariectomized rats. In words: Uterus weight in ovariectomized rats of the bone studies. Type of experiment: in vivo, rat. As to the method:
(§2) 3-month-old female rats are ovariectomized and treated once daily with the test compound immediately after the operation for 28 days. The administration is done subcutaneously in castor oil/benzyl benzoate or arachis oil/ethanol. The animals are sacrificed on the day after the last administration, and femurs, tibiae and uteri are removed. The uteri are weighed, fixed and worked up for histological studies. The determination of the bone density is carried out ex vivo on prepared long bones with use of pQCT (Quantitative Computer Tomography). The measurements are performed at a distance of 5-7 mm from the ball of the joint on the distal femur or the proximal tibia.

Experiment [4] has as its system trabecular bone (proximal tibia) of ovariectomized rats. In words: Bone studies in ovariectomized rats: trabecular bone surface area (TB/TV), histological, proximal tibia. Type of experiment: in vivo, rat. Particulars: Table 4, proximal tibia, 28 days. As for the experimental part: as §2
As an alternative, the action on the bone is determined by measuring the trabecular bone surface area of the secondary spongiosa in histological preparations of the distal femur or the proximal tibia. The result is expressed as the proportion, in percent, of the trabecular bone surface area in the measured total bone surface area ([…]). The bone density that is measured with use of QCT and the trabecular bone surface area that is determined in the histological section correlate well to one another. A comparison of the two measurement variables is therefore permissible.
About 50% of the bone density of the animals is lost by the ovariectomy. […] In Table 4 and FIG. 2, the results of this test for doses of 0.1-100 μg/animal/day are presented. The bone density was measured on the distal femur; for comparison, the trabecular bone surface area in the proximal tibia was measured. The data that are contained in Table 4 mean specifically:
TB/TV trabecular bone surface area/total bone surface area; histologically determined
For compound B according to the invention, their bone-protecting action was also determined (Table 6). For this purpose, the parameter of TB/TV was determined, which, however, with respect to the informational value for the bone-protecting activity correlates well to the parameter of BMD-qCT that is determined for compounds A and V. This can be ascertained from Table 4; both parameters were determined for compound A.

`C[C@]12C[C@H](c3ccc(OCCCCCS(=O)(=O)Cc4ccccn4)cc3)[C@@H]3c4ccc(O)cc4CC[C@H]3[C@]13CC[C@@]2(O)CC3` [Compound A]: the entries for the “Uterus Weight % of Inhibition” value in the experiment with uterus of infant rats [1] (0.1 mg/kg s.c.), in the experiment with uterus of infant rats [1] (1 mg/kg s.c.) and in the experiment with uterus of infant rats [1] (10 mg/kg s.c.) were 33%, 88% and 121%, respectively. At human estrogen receptor, the IC50 – broadly, the concentration that inhibits the measured activity by half – turned out to be 0.4 nM. Further, the Emax at estrogen receptors turned out to be 16%. Moreover, the “Epithelial Height % E2” value with uterus of infant rats [2] (0.01 mg/kg s.c.) is given as 6 % E2; in the experiment with uterus of infant rats [2] (0.1 mg/kg s.c.), -16 % E2; in the experiment with uterus of infant rats [2] (1 mg/kg s.c.) it was -8 % E2; in the experiment on uterus of infant rats [2] (10 mg/kg s.c.) it was -22 % E2. Moreover, the “Uterus Weight % E2” value was 2 % E2 with uterus of infant rats [2] (0.01 mg/kg s.c.), 0 % E2 in the experiment with uterus of infant rats [2] (0.1 mg/kg s.c.), -7 % E2 in the experiment with uterus of infant rats [2] (1 mg/kg s.c.) and -15 % E2 with uterus of infant rats [2] (10 mg/kg s.c.). In addition, the “estrogenic action in the uterus (in words)” value with uterus of infant rats [2] (s.c., uterus growth test) is given as “without any estrogenic action in the uterus”. Moreover, the “stimulation of uterus weight (in words)” value in experiment [3] (FIG. 3, test of Table 4, 0.1-100 μg/animal/day) was “stimulates the uterus weight, but at most does so marginally”; in experiment [3] (FIG. 5, test of Table 5, all tested dosages 100-2000 μg/animal/day), “stimulates the uterus weight only marginally in all tested dosages”. In addition, the “TB/TV (Tibia)” value was determined as 17.2% in experiment [4] (0.1 μg/animal/day s.c.), 18.9% in experiment [4] (1 μg/animal/day s.c.), 22.5% in experiment [4] (10 μg/animal/day s.c.) and 27.0% in experiment [4] (100 μg/animal/day s.c.). Further, the “% of Action of E2 (TB/TV tibia)” value in experiment [4] (1 μg/animal/day s.c.) is recorded as 17%; in experiment [4] (10 μg/animal/day s.c.), 35%; in experiment [4] (100 μg/animal/day s.c.), 62%; in experiment [4] (cell empty for 17β-estradiol, 0.1 μg/animal/day s.c.) it was 4.1%.

(Values after patent publication US6229029A, “11β-aryl substituted 14,17-ethanoestratriens, method for the production of these compounds and their use in the production of medicaments” (Schering Aktiengesellschaft, priority 1997, dated 2001).)
